Experimental data from paper PMC8962335, “In Vivo Evaluation of ECP Peptide Analogues for the Treatment of Acinetobacter baumannii Infection” (Biomedicines, 2022).
Several values for one entry are separate records, joined by “and”; a condition that tells them apart may be missing. Equal entries are not always repeated.

How the values were obtained:
[1] = system: A. baumannii; test: Efficacy assay in murine acute systemic infection model (survival); assay type: in vivo, Balb/c mice; conditions: 10^8 CFU/kg A. baumannii, colistin 15 mg/kg
Method: An aliquot from an A. baumannii stock stored in 15% glycerol at −80 °C was taken to culture in 3 mL LB overnight at 250 rpm, 37 °C. Next, OD600 reading of A. baumannii overnight culture was performed to adjust to the number of bacteria required (CFU/mL) and then diluted by half with the same volume of 10% porcine mucin, to obtain a solution of selected CFU/mL in 5% mucin for mice inoculation. […] The inoculating volume was decided based on the body weight of each animal (10 mL/kg).
When the sum of the scores reached a maximum value of 7, the mice were euthanized following ethical principles. The infection was first tested at a concentration of 10^9 CFU/kg and then set at 10^7 CFU/kg and 10^8 CFU/kg. […] We also performed an extra assay where mice infected by 10^8 CFU/kg of A. baumannii were treated with colistin, used as a positive control.
To avoid bias, the reagents for these four groups were given to technicians in advance and renumbered randomly, designated as A, B, C, D, respectively. […]
The clinical symptoms were assessed through a scoring system, which contains 9 items, including changes of body weight, behavior, breathing, skin, hair, eyes and gastrointestinal status (see full list at Table S2). […] During the study, when an animal obtained a score of 3 in any of the parameters assessed with a maximum score of 3, euthanasia was carried out to apply the endpoint criteria. […]

[2] = system: MRC-5 cells; test: Cytotoxicity assay (MTT); conditions: MTT, Mean ± SE, N.D. = no reduction in cell viability detected at the highest concentration
Method: (§1) Cytotoxicity was measured for the MRC-5 and HEK293T cell lines by MTT assay. Cells were grown in 5% CO2 at 37 °C with MRC-5 cell line maintained in MEMα and HEK293T in DMEM/F-12 media, both of which were supplemented with 10% FBS. The cells were passaged in 25 cm^2 or 75 cm^2 flasks to prepare 96-well plates with 3 × 10^4 cells/well, which were incubated overnight. Next, serial dilutions of ECPep-D and ECPep-2D-Orn were added to have a final concentration ranging from 100 to 0.78 μM (375 μg/mL to 3 μg/mL) and colistin was added at final concentrations ranging from 300 to 2.34 μM (380 μg/mL to 3 μg/mL) in corresponding wells. After incubation to the specified time, the medium of the plate was replaced by fresh medium containing 0.5 mg/mL MTT solution and the mixture was incubated for 2.5 h in 5% CO2 at 37 °C. The medium was then removed, and formazan was dissolved by adding DMSO. The optical density (OD) was recorded by using a Victor^3 plate reader (PerkinElmer, Waltham, MA, USA) set at 540 nm and 620 nm as a reference. Each test was performed in triplicate.

[3] = system: LPS; test: LPS in serum of infected mice by ELISA; assay type: in vivo, Balb/c mice; conditions: second efficacy assay, colistin 15 mg/kg versus ECPep-D 20 mg/kg, p < 0.1
Method: In the second efficacy study, the blood of animals that either died for severe clinical symptoms or were euthanized at the end of the assay, were collected for testing TNF-α and LPS levels by ELISA. In order to check the levels of TNF-α and free LPS, only serum was analyzed, after discarding blood cells by centrifugation. The blood from mice was centrifuged at 3200 rpm for 30 min and the supernatants were collected carefully to ensure that there were no sediments left. Mouse ELISA kits for TNF-α and LPS were used.
According to the description of the manufacturer, LPS level determination is based on the principle of double antibody sandwich technology, where the microplates pre-coated with specific antibodies were used. Following addition of serum samples to the wells, the HRP-Conjugate reagent was added to form an immune complex. After incubation and washing, the unbound enzyme was removed. Then, chromogen substrates were added successively and optical density was recorded using microplate reader set at 450 nm. Sample readings were corrected using the baseline corresponding to serum of mice neither infected nor treated. A calibration standard curve was prepared and final calculated values were positively correlated with the concentration of LPS. Two replicates were performed according to the protocols for the representation of the standard curve and the sample testing.

[4] = system: O-LPS (LPS from E. coli O111:B4); test: LPS affinity assay (BODIPY TR cadaverine displacement); assay type: binding; conditions: 50% of BC probe bound to LPS displaced; Mean ± SE
Text: (§2) Lipopolysaccharides (LPS) from E. coli O111:B4 (O-LPS), EH100 (Ra mutant), and J5 (Rc mutant), porcine mucin, Mueller Hinton broth (MHB) and Thiazolyl Blue Tetrazolium […] (MTT) were purchased at Sigma-Aldrich (Saint Louis, MO, USA). Colistin sulphate and Dimethyl sulfoxide (DMSO) were from Apollo Scientific (Stockport, UK). BODIPY® TR cadaverine (BC) were from Molecular Probes (Eugene, OR, USA). Mouse TNF-α ELISA Kit (MBS175787, MyBioSource, San Diego, CA, USA) and Mouse LPS ELISA Kit (MBS7700668, MyBioSource, San Diego, CA, USA) were from bioNova científica s.l. (Madrid, Spain) Human TNF-α ELISA set was from BD Biosciences (555212, BD OptEIA^TM, San Jose, CA, USA). Aspidasept® (pep19-2.5) is an antibacterial/anti-inflammatory peptide drug ([…], with C-terminal amide).
(§3) The LPS affinity was assessed using the fluorescent probe BC by an adaptation of the displacement assay reported. Peptides and colistin were serially diluted in a 96-well fluorescence plate from 20 to 0.16 μM in Tris/HCl 50 mM PH 7.4. Next, LPS and BC diluted in the same buffer were added to have the final concentration of 50 μg/mL and 5 μM, respectively. Fluorescence measurements were performed on Tecan Microplate Reader Spark® at 580 nm of excitation wavelength and 620 nm of the emission wavelength at 5 nm for optimal gain. Each test was performed in triplicate.

[5] = system: LPSRa (LPS from E. coli EH100, Ra mutant); test: as above; assay type: binding; conditions: 50% of BC probe bound to LPS displaced; Mean ± SE
Text: as §2, §3

[6] = system: LPSRc (LPS from E. coli J5, Rc mutant); test: as above; assay type: binding; conditions: 50% of BC probe bound to LPS displaced; Mean ± SE
Text: as §2, §3

[7] = system: E. coli; assay type: cell-based, Escherichia coli; conditions: 24 h incubation, MHB, triplicate
Text: (§4) A. baumannii strain (CECT 452, Valencia, Spain, ATCC 15308, Manassas, VA, USA) and Pseudomonas aeruginosa (P. aeruginosa) strain (CECT 4122, Valencia, Spain, ATCC 15692, Manassas, VA, USA) were from the Colección Española de Cultivos Tipo (CECT, Valencia, Spain). The Escherichia coli (E. coli) BL21 (DE3) strain was from Novagen (Darmstadt, Germany). MRC-5 cells were from the American Type Culture Collection (ATCC, Manassas, VA, USA) and HEK293T cell line was kindly provided by Dr. Raquel Pequerul (UAB, Barcelona, Spain).
(§5) The MIC is defined as the lowest concentration of one reagent to prevent visible growth of bacteria. The MIC determination was followed by the protocol described previously. Briefly, bacteria in exponential growth were used to prepare a suspension in MHB with the approximate number of 5 × 10^5 CFU/mL. Next, an aliquot of 90 μL of bacteria suspension was added into each well of the 96-well polypropylene plate. Immediately, 10 μL of peptide diluted by 0.01% acetic acid was added to the corresponding well to have a final concentration ranging from 20 to 0.16 μM. The plate was incubated for 24 h at 37 °C, 100 rpm. The presence or absence of bacterial growth was visually inspected and confirmed by reading OD600 with Tecan Microplate Reader Spark®. Each test was performed in triplicate.

[8] = cited from earlier work
[9] = system: P. aeruginosa; assay type: cell-based, Pseudomonas aeruginosa; conditions: 24 h incubation, MHB, triplicate
Text: as §4, §5

[10] = system: HEK293T cells
Method: as §1

[11] = system: A. baumannii; assay type: cell-based, Acinetobacter baumannii; conditions: 24 h incubation, MHB, triplicate
Text: as §4, §5

Colistin sulphate [reference compound]
survival rate, first efficacy assay ([1]; i.p. once every 24 h for 3 days from 2 h post inoculum, peptides 10 mg/kg, 3 days): 100% | survival rate after 3 days (72 h), second efficacy assay ([1]; single i.p. dose 2 h post inoculum, peptides 20 mg/kg, 72 h): 100% | LD50 (MRC-5) 24 h ([2]; 24 h): >300 μM and >380.26 μg/mL | LD50 (MRC-5) 48 h ([2]; 48 h): >300 μM and >380.26 μg/mL | concentration of LPS in serum, Day 3 [3]: slightly increased | EC50 [4]: 7.87 ± 0.33 µM | EC50 O-LPS [4]: 9.97 ± 0.42 µg/mL | EC50 [5]: 13.1 ± 0.4 µM | EC50 LPSRa [5]: 16.63 ± 0.50 µg/mL | EC50 [6]: 19.2 ± 0.34 µM | EC50 LPSRc [6]: 24.31 ± 0.42 µg/mL | MIC E. coli [7]: 5 μM and 6.34 μg/mL | LD50 by intraperitoneal administration ([8]; Swiss albino mice, single injection): 20 to 30 mg/kg | deaths from neurotoxicity ([8]; mice receiving 32 mg/(kg × day), after three doses): three of twelve mice died | LD50 for the intraperitoneal route ([8]; mice, ref U.S. National Library of Medicine ChemIDplus 1264-72-8): 21.8 mg/kg | MIC P. aeruginosa [9]: 0.31 μM and 0.40 μg/mL | IC50 (HEK293T) 48h ([10]; MTT, Mean ± SE): > 380.26 µg/mL | IC50 ([10]; read-out: IC50 (HEK293T) 48h, MTT, Mean ± SE): > 300 µM | MIC A. baumannii [11]: 0.31 μM and 0.40 μg/mL
